Results as given in publication PMC10564737, “Structure-based design of a phosphotyrosine-masked covalent ligand targeting the E3 ligase SOCS2” (Nature Communications, 2023).
“And” between values parts separate entries of the source, which are not always exact repeats. Identical values can stand only once.

Experiments:
SBC2 [1] = molecular target: T1, SBC2 (Homo sapiens, UniProt O14508); assay: Isothermal titration calorimetry (ITC), direct titration; type: binding; conditions: for Kd: ITC KD, direct ITC, 298 K
T1 construct: SOCS2 (amino acids 32–198); His6 (N, cleaved yes); made in house; host or cells: E. coli BL21(DE3)
T1 sequence (O14508 32-198): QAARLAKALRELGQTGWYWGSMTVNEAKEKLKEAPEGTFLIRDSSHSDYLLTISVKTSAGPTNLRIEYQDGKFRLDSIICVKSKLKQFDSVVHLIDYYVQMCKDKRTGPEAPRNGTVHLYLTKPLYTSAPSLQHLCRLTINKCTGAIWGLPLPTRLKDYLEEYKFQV
T1 sequence (Q15370 1-104 partner limits assumed): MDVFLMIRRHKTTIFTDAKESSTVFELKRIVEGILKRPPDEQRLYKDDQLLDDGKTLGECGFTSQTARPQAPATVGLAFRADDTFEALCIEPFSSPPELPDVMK
T1 sequence (Q15369 17-112 partner limits assumed): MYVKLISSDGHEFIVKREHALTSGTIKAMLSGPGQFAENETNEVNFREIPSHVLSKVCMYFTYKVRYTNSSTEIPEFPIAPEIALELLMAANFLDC
Method: Experiments were performed with ITC200 instrument (Malvern) in 100 mM HEPES pH 7.5, 50 mM NaCl, 0.5 mM TCEP at 298 K. The ITC titration consisted of 0.4 μl initial injection (discarded during data analysis) followed by 19 of 2 μl injections at 120 s interval between injections. 1 mM of the ligands in 2–4% DMSO were titrated into 100 μM SBC2. […] Binding data was subtracted from a control titration where ligand was titrated into buffer, and fitted using a one-set-of-site binding model to obtain dissociation constant (Kd), binding enthalpy (ΔH), and stoichiometry (N) using MicroCal PEAQ-ITC Analysis Software1.1.0.1262 and MicroCal ITC-ORIGIN Analysis Software 7.0 (Malvern).

SBC2 [2] = molecular target: T1, SBC2; assay: Surface plasmon resonance (SPR) with SBC2 immobilized on the chip; type: binding; conditions: for Kd: Table 2, second-round library, n = 1
Description: First, we decided to optimize the N-terminal region of 1 while maintaining the N-methylamide group at the C-terminus. To generate analogs rapidly, we employed a solid phase synthesis using methyl indole AM resin. After Fmoc deprotection, the resin was loaded with Fmoc-Tyr (PO(OBzl)2)-OH[29]. Subsequent coupling with various commercially available carboxylic acids and cleavage with TFA allowed the rapid synthesis of N-methylcarboxamide phosphotyrosines (Supplementary Fig. 1). We introduced different substituents at the N-terminus to cover a range of physicochemical properties (e.g. alicyclic, heterocyclic, aromatic with electron-withdrawing and electron-donating groups) to maximize potential interactions (see Table 1 for representative examples). Binding affinities of the synthesized compounds for SOCS2 were measured via two orthogonal biophysical binding assays: (1) surface plasmon resonance (SPR) with SBC2 immobilized on the chip (Supplementary Fig. 7); and (2) ^19F ligand-observed displacement NMR assays, providing two orthogonal biophysical measurements of dissociation constants (KD)[29],[31]. We found an excellent correlation between the KD values measured via the two techniques (Table 1). Para-substituted benzyl moieties yielded the greatest contributions to binding affinity and there were only slight differences between electron-withdrawing groups such as a methyl ester and electron-donating such as methoxy group.
SPR experiments were performed using a Biacore S200 instrument (GE Healthcare) in 20 mM HEPES pH 7.5, 150 mM NaCl, 1 mM TCEP, 0.005% Tween20, 2% DMSO buffer at 10 °C. Biotinylated SBC2 was immobilized onto a chip surface (the final surface density of biotinylated SBC2 was ~3000–4000 RU). AviTagged-SBC was biotinylated using BirA enzyme as per manufacturer’s protocol (Avidity). Compounds were serially diluted in the running buffer and injected individually: contact time 60 s, flow rate 30 μL/min, dissociation time 150 s, using a stabilization period of 30 s and syringe wash (50% DMSO) between injections. Data analysis was carried out using Biacore Evaluation Software (GE Healthcare). All data were double-referenced for reference surface and blank injection. The processed sensograms were fit to a steady-state affinity using a 1:1 binding model for KD estimation.

[3] = molecular target: T2, HiBiT-SOCS2 fusion in HeLa cells (Homo sapiens, UniProt O14508); assay: Split-NanoLuc CETSA, live-cell mode; type: cell-based; set-up: Produrg CETSA screening, raw signal: reference not given here; conditions: for Produrg CETSA screening, raw signal: 50uM 20hrs
T2 construct: encoding SOCS2 (32–198) in pBiT3.1-N expression vector; expressed in transfected cells; host or cells: HeLa
T2 sequence (O14508 32-198): as the sequence (O14508 32-198) above
T2 sequence (Q15370 whole entry, further chain, the tested form may be a part): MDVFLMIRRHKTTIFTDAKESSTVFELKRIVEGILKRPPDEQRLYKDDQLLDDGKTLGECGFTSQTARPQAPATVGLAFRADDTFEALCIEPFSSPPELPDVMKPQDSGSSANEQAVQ
T2 sequence (Q15369 whole entry, further chain, the tested form may be a part): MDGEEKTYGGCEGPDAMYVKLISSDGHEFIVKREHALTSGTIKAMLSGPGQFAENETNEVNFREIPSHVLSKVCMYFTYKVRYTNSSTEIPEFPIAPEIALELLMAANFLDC
Method: One of the challenges with small-molecule binders displaying on-target activity with recombinant proteins, is to translate their utility to a cellular context. […] One of the advantages of CETSA is that target engagement can be monitored without the need for the development of a cell-permeable tracer molecule.
We utilized CETSA in a live-cell mode to evaluate the efficacy and rank the different prodrugs. We treated live HeLa cells with 50 μM compound (prodrugs) for 20 h and monitored Tagg shift as a proxy for the combo of prodrug permeability and unmasking (Fig. 4d). […] The observation could be because the POM group unmasking requires only esterase unlike the reliance of compounds 21–23 on esterase and phosphoramidase for unmasking an aryloxy phosphoramidate group.
N-terminal HiBiT-SOCS2 fusion was generated by encoding SOCS2 (32–198) in pBiT3.1-N expression vector (Promega). The transfection and target engagement assay were performed by modifying a NanoLuc target engagement protocol (Promega) with some small modifications. Briefly, HiBiT-SOCS2 fusion construct was transfected into HeLa cells using FuGENE HD (Promega) according to the manufacturer’s protocol. HiBiT-SOCS2 fusion construct was diluted into Transfection Carrier DNA (Promega) at a mass ratio of 1:100 or 1:10 for permeabilised and live-cell CETSA respectively. FuGENE HD was added at a ratio of 1:3 (μg DNA: μL FuGENE HD). 1 part (vol) of FuGENE HD complexes thus formed were combined with 20 parts (vol) of HeLa cells suspended at a density of 2 × 10^5 cells/mL, followed by incubation in a humidified, 37 °C + 5% CO2 incubator. After 20 h of incubation HeLa cells were detached and resuspended at a density of 2.5 × 10^5 cells/mL in Opti-MEM media without serum or phenol red but supplemented with protease inhibitor cocktail (Roche). Compounds stocks were added to cell suspension to maintain a final DMSO concentration of 1%. For the permeabilised assay format, 96-well PCR plates (Thermo) were pre-treated with digitonin to have a final well concentration of 50 μg/ml. 50 μl Opti-MEM cell suspension was then aliquoted to each well of the 96-well plate. The plates are then covered with microporous tape sheet (Qiagen) prior to incubation in a humidified, 37 °C + 5% CO2 incubator. Post-incubation we heat the PCR plates in 16-point temperature (split across two runs) curve spanning degrees 40-72 °C temperature span (CFX96 Touch Real-Time PCR Detection System, BioRad). The thermal cycler block was allowed to rise to the designated temperatures prior to placement of the PCR plates into the heating block and heat treatment for 3 min. After incubating the plates at room temperature for over 3 min, 50 μl of the Nano-Glo HiBiT Lytic mix (Promega) was added to each well. Samples were mixed by pipetting and placing the plate on an orbital shaker (600 rpm) for 5 min. 20 μl of the samples (in triplicates) were transferred to a AlphaPlate-384 plate (Perkin Elmer). Luminescence was recorded with GloMax Discover Microplate Reader (Promega). To generate apparent Tagg curves, the data is first converted to percent stabilized by relating the observed luminescence to the luminescence of the lowest temperature (40 °C) for that given sample. Data are then fitted to obtain apparent Tagg values using the Boltzmann Sigmoid equation using Graphpad Prism 9.

Structure (SMILES): C=CCc1cccc(CNC(=O)[C@H](Cc2ccc(OP(=O)(O)O)cc2)NC(=O)Cc2ccc(F)cc2)c1 [Compound 14, (S)-4-(3-((3-allylbenzyl)amino)-2-(2-(4-fluorophenyl)acetamido)-3-oxopropyl)phenyl phosphate]
- ITC ΔG (SBC2 [1]): -8.61 kcal/mol
- ITC ΔH (SBC2 [1]): -6.31 kcal/mol
- ITC −TΔS (SBC2 [1]): -2.26 kcal/mol
- Kd (SBC2 [1]): 480 nM
- Kd (SBC2 [2]): 2400 nM

Structure (SMILES): C=CCc1cc(CNC(=O)[C@H](Cc2ccc(OP(=O)(O)O)cc2)NC(=O)Cc2ccc(F)cc2)ccc1F [Compound 13]
- ITC ΔG (SBC2 [1]): -8.75 kcal/mol
- ITC −TΔS (SBC2 [1]): -1.62 kcal/mol
- Kd (SBC2 [1]): 380 nM
- Kd (SBC2 [2]): 2400 nM

Structure (SMILES): Cc1cccc(CNC(=O)[C@H](Cc2ccc(OP(=O)(O)O)cc2)NC(=O)Cc2ccc(F)cc2)c1 [Compound 10, (S)-4-(2-(2-(4-fluorophenyl)acetamido)-3-((3-methylbenzyl)amino)-3-oxopropyl)phenyl phosphate]
- ITC ΔG (SBC2 [1]): -8.12 kcal/mol
- ITC −TΔS (SBC2 [1]): -2.31 kcal/mol
- Kd (SBC2 [1]): 1100 nM
- improvement of binding affinity compared to 5 (SBC2 [2]; SPR): 10 fold
- Kd (SBC2 [2]): 3700 nM

Structure (SMILES): Cc1cc(CNC(=O)[C@H](Cc2ccc(OP(=O)(O)O)cc2)NC(=O)Cc2ccc(F)cc2)ccc1F [Compound 11, (S)-4-(3-((4-fluoro-3-methylbenzyl)amino)-2-(2-(4-fluorophenyl)acetamido)-3-oxopropyl)phenyl phosphate]
- ITC ΔG (SBC2 [1]): -8.23 kcal/mol
- ITC ΔH (SBC2 [1]): -5.25 kcal/mol
- ITC −TΔS (SBC2 [1]): -2.98 kcal/mol
- Kd (SBC2 [1]): 1000 nM
- Kd (SBC2 [2]): 2700 nM

Structure (SMILES): C[C@H](NP(=O)(Oc1ccc(C[C@H](NC(=O)Cc2ccc(F)cc2)C(=O)NCc2cccc(NC(=O)CCl)c2)cc1)Oc1cccc2ccccc12)C(=O)OCc1ccccc1 (stereo partly shown) [Compound 23]
- Produrg CETSA screening, raw signal ([3]; n=1, temperature point 5 of 16, temperature not given): 69363 and 80806 and 112884
- Produrg CETSA screening, raw signal ([3]; n=1, temperature point 6 of 16, temperature not given): 96967 and 118352 and 144445
- Produrg CETSA screening, raw signal ([3]; n=1, temperature point 7 of 16, temperature not given): 143643 and 166973 and 192783
- Produrg CETSA screening, raw signal ([3]; n=1, temperature point 8 of 16, temperature not given): 106216 and 128406 and 210436
- Produrg CETSA screening, raw signal ([3]; n=1, temperature point 9 of 16, temperature not given): 167377 and 176709 and 206363
- Produrg CETSA screening, raw signal ([3]; n=1, temperature point 10 of 16, temperature not given): 186703 and 236478 and 300868
- Produrg CETSA screening, raw signal ([3]; n=1, temperature point 11 of 16, temperature not given): 231104 and 290174 and 305287
- Produrg CETSA screening, raw signal ([3]; n=1, temperature point 12 of 16, temperature not given): 354321 and 369048 and 401655
- Produrg CETSA screening, raw signal ([3]; n=1, temperature point 13 of 16, temperature not given): 341517 and 349800 and 466508
- Produrg CETSA screening, raw signal ([3]; n=1, temperature point 14 of 16, temperature not given): 353173 and 365195 and 397047
- Produrg CETSA screening, raw signal ([3]; n=1, temperature point 15 of 16, temperature not given): 381815 and 407106 and 448233
- Produrg CETSA screening, raw signal ([3]; n=1, temperature point 16 of 16, temperature not given): 423512 and 424780 and 453391
- Produrg CETSA screening, raw signal ([3]; n=2, temperature point 1 of 16, temperature not given): 81542 and 84696 and 155298
- Produrg CETSA screening, raw signal ([3]; n=2, temperature point 2 of 16, temperature not given): 72558 and 139894 and 123324
- Produrg CETSA screening, raw signal ([3]; n=2, temperature point 5 of 16, temperature not given): 87834 and 139601 and 100567
- Produrg CETSA screening, raw signal ([3]; n=2, temperature point 6 of 16, temperature not given): 98775 and 175976 and 137381
- Produrg CETSA screening, raw signal ([3]; n=2, temperature point 7 of 16, temperature not given): 152633 and 181253 and 191364
- Produrg CETSA screening, raw signal ([3]; n=2, temperature point 8 of 16, temperature not given): 176015 and 229873 and 213107
- Produrg CETSA screening, raw signal ([3]; n=2, temperature point 9 of 16, temperature not given): 189127 and 214945 and 246245
- Produrg CETSA screening, raw signal ([3]; n=2, temperature point 10 of 16, temperature not given): 212633 and 267460 and 262658
- Produrg CETSA screening, raw signal ([3]; n=2, temperature point 11 of 16, temperature not given): 244590 and 322245 and 338306
- Produrg CETSA screening, raw signal ([3]; n=2, temperature point 12 of 16, temperature not given): 338485 and 407495 and 420421
- Produrg CETSA screening, raw signal ([3]; n=2, temperature point 13 of 16, temperature not given): 375692 and 455999 and 437696
- Produrg CETSA screening, raw signal ([3]; n=2, temperature point 14 of 16, temperature not given): 432064 and 448169 and 475813
- Produrg CETSA screening, raw signal ([3]; n=2, temperature point 15 of 16, temperature not given): 397604 and 474479 and 457905
- Produrg CETSA screening, raw signal ([3]; n=2, temperature point 16 of 16, temperature not given): 400496 and 479946 and 527841
- Produrg CETSA screening, raw signal ([3]; n=3, Temp, 0C 54.1): 44604
- Produrg CETSA screening, raw signal ([3]; n=3, Temp, 0C 55): 39796 and 47150 and 51627
- Produrg CETSA screening, raw signal ([3]; n=3, Temp, 0C 56): 45790 and 51042 and 62078
- Produrg CETSA screening, raw signal ([3]; n=3, Temp, 0C 57.1): 31202 and 38155 and 39301
- Produrg CETSA screening, raw signal ([3]; n=3, Temp, 0C 59.2): 28243 and 27436 and 39233
- Produrg CETSA screening, raw signal ([3]; n=3, Temp, 0C 62.3): 17330 and 19655 and 29378
- Produrg CETSA screening, raw signal ([3]; n=3, Temp, 0C 66.1): 14860 and 24999 and 29256
- Produrg CETSA screening, raw signal ([3]; n=3, Temp, 0C 71.1): 14600 and 19386 and 22788
- ΔT ([3]; Prodrug screen CETSA, live HeLa cells, 50 μM, 20 h, Mean n = 3): 2.28 oC
- ΔT, individual replicates n1-n3 ([3]; Prodrug screen CETSA, single replicates): 0.90 oC and 3.19 oC and 2.74 oC
